According to publication PMC4972190, “In vitro activity of salinomycin and monensin derivatives against Trypanosoma brucei” (Parasites & Vectors, 2016):
Values after ≈ are worked out from the molar mass of the structure shown. Where two headings read alike, the source gives them in different places.

Experiments:
[1] = test system: Bloodstream forms of T. brucei (clone 427-221a); experiment: Toxicity assay (resazurin, 72 h) on bloodstream forms of T. brucei; format: cell-based, Trypanosoma brucei; details: for Selectivity GI50 ratio: GI50(HL-60)/GI50(T. brucei); for Selectivity MIC ratio: MIC(HL-60)/MIC(T. brucei); for GI50 / MIC: 72 h; for MIC: concentration at which all cells were killed, determined microscopically, mean of three experiments
Description: (§1) Bloodstream forms of T. brucei (clone 427-221a) and human myeloid leukaemia HL-60 cells were grown in Baltz medium and RPMI medium, respectively. Both culture media were supplemented with 16.7 % (v/v) heat-inactivated foetal calf serum. All cultures were maintained in a humidified atmosphere containing 5 % CO2 at 37 °C.
(§2) Cells were seeded in 96-well plates in a final volume of 200 μl of their respective culture medium containing 10-fold serial dilutions of ionophore derivatives (10^-4 to 10^-10 M) and 1 % DMSO. Wells containing medium and 1 % DMSO served as controls. The initial cell densities were 1 × 10^4/ml for T. brucei and 1 × 10^5/ml for HL-60 cells. After 24 h incubation at 37 °C in a humidified atmosphere containing 5 % CO2, 20 μl of a 0.44 mM resazurin solution prepared in PBS was added and the cells were incubated for a further 48 h so that the total incubation time was 72 h. Thereafter, the plates were read on a microplate reader using a test wavelength of 570 nm and a reference wavelength of 630 nm. The 50 % growth inhibition (GI50) value, i.e. the concentration of a compound necessary to reduce the growth rate of cells by 50 % compared to the control was determined by linear interpolation according to the method described in [22]. The minimum inhibitory concentration (MIC) values, i.e. the concentration of the drug at which all trypanosome and human cells were killed, was determined microscopically. Each compound was independently tested three times.

[2] = test system: human myeloid leukaemia HL-60 cells; experiment: Toxicity assay (resazurin, 72 h) on HL-60 cells; format: cell-based; details: for MIC: determined microscopically, mean of three experiments; for GI50: Homo sapiens
Description: as §1, §2

[3] = test system: bloodstream forms of T. brucei; experiment: Measurement of changes in cell volume by light scattering; format: cell-based, Trypanosoma brucei; details: 100 μM; 5 × 10^7 cells/ml; measured every 15 min; decrease in absorbance = increase in cell volume
Description: Change in cell volume was determined by light scattering as previously described. In brief, bloodstream forms of T. brucei were seeded at a density of 5 × 10^7 cells/ml in 96-well plates in a final volume of 200 μl culture medium containing 100 μM of salinomycin or the salonimycin derivatives SAL-E7 or SAL-AM2 and 1 % DMSO. Absorbance of the cultures was measured at 490 nm every 15 min. A decrease in absorbance corresponded to an increase in cell volume. The experiment was repeated three times.
Change in cell volume can be measured by light scattering at 450–550 nm whereby a decrease in absorbance indicates swelling of cells. In order to be able to record measurable absorbance changes, a high cell density is required. […] However, the derivatives caused a slightly faster swelling of the cells than salinomyicn. […] During further incubation, trypanosomes increased their cell volume but cell swelling was much slower and much less. […] However, it seems that the transport efficiency determines the trypanocidal potency of salinomycin derivatives.
Fig. 3 Effect of salinomycin derivatives on the cell volume of bloodstream forms of T. brucei. […] Every 15 min, the absorbance at 490 nm was measured. […] Note that a decrease in absorbance corresponds to an increase in cell volume

[4] = test system: human nasal mucosa cells; design: method as in PMID 23517602, PMID 25769976; details: read-out: 50 % effective concentration (cytotoxicity); cited from earlier work
[5] = test system: human peripheral blood mononuclear cells; design: method as in PMID 23517602, PMID 25769976; details: read-out: 50 % effective concentration (cytotoxicity); cited from earlier work
[6] = test system: Bloodstream forms of T. brucei (clone 427-221a); design: method as in PMID 23517602; details: human cells vs bloodstream forms of T. brucei; cited from earlier work
[7] = Trypanosoma brucei, T. brucei bloodstream forms
[8] = Trypanosoma brucei, T. brucei bloodstream forms, read-out: MIC
[9] = Trypanosoma brucei, T. brucei bloodstream forms, resazurin, mean ± SD of three experiments, read-out: GI50
[10] = HL-60 cells, 72 h, resazurin, mean ± SD of three experiments, read-out: GI50

SMILES	Selectivity GI50 ratio [1]	Selectivity MIC ratio [1]	GI50 ([1]; Trypanosoma brucei)	MIC [1, 7]	MIC ([2]; HL-60 cells, 72 h)	GI50 ([2]; HL-60, 72 h)	MIC [1, 8]	GI50 [1, 9]	GI50 [2, 10]	Effect on cell volume (absorbance at 490 nm) [3]	MIC ([1]; T. brucei bloodstream forms)	MIC ([1]; T. brucei bloodstream forms, listed as salinomycin n-butyl amide)	MIC ([1]; T. brucei bloodstream forms, read-out: MIC)	EC50 [4]	EC50 [5]	selectivity (cytotoxic/trypanocidal ratio) [6]
CCCCOC(=O)C(CC)C1CCC(C)C(C(C)C(O)C(C)C(=O)C(CC)C2OC3(C=CC(O)C4(CCC(C)(C5CCC(O)(CC)C(C)O5)O4)O3)C(C)CC2C)O1 (centres unmarked) [SAL-E4]	10.5	10	3.12 ± 0.08 µM	10 µM (≈ 8.07 µg/mL)	100 µM (≈ 80.7 µg/mL)	32.9 ± 2.5 µM										
C=CCNC(=O)OCC1(O)OC(C2CC(C)C(C3(CC)CCC(C4(C)CCC5(CC(O)C(C)C(C(C)C(OC)C(C)C(=O)O)O5)O4)O3)O2)C(C)CC1C (centres unmarked) [MON-UR1]	75	100	0.31 ± 0.06 µM	1 µM (≈ 0.754 µg/mL)	100 µM (≈ 75.4 µg/mL)	23.3 ± 6.6 µM										
C=CCNC(=O)C(CC)C1CCC(C)C(C(C)C(O)C(C)C(=O)C(CC)C2OC3(C=CC(O)C4(CCC(C)(C5CCC(O)(CC)C(C)O5)O4)O3)C(C)CC2C)O1 (centres unmarked) [SAL-AM1]	12.0	10	3.23 ± 0.21 µM	10 µM (≈ 7.9 µg/mL)	100 µM (≈ 79 µg/mL)	38.9 ± 3.2 µM										
C=CCOC(=O)C(CC)C1CCC(C)C(C(C)C(O)C(C)C(=O)C(CC)C2OC3(C=CC(O)C4(CCC(C)(C5CCC(O)(CC)C(C)O5)O4)O3)C(C)CC2C)O1 (centres unmarked) [SAL-E3]	10.9	10	3.1 ± 0.21 µM	10 µM (≈ 7.91 µg/mL)	100 µM (≈ 79.1 µg/mL)	33.8 ± 3.5 µM										
CCC(C(=O)NCCc1ccc(F)cc1)C1CCC(C)C(C(C)C(O)C(C)C(=O)C(CC)C2OC3(C=CC(O)C4(CCC(C)(C5CCC(O)(CC)C(C)O5)O4)O3)C(C)CC2C)O1 (centres unmarked) [SAL-AM5]	14.6	10	2.69 ± 0.2 µM	10 µM (≈ 8.72 µg/mL)	100 µM (≈ 87.2 µg/mL)	39.2 ± 1.6 µM										
Cc1ccc(C(=O)Nc2ccc(S(=O)(=O)O)c3cc(S(=O)(=O)O)cc(S(=O)(=O)O)c23)cc1NC(=O)c1cccc(NC(=O)Nc2cccc(C(=O)Nc3cc(C(=O)Nc4ccc(S(=O)(=O)O)c5cc(S(=O)(=O)O)cc(S(=O)(=O)O)c45)ccc3C)c2)c1 [Suramin, suramin, reference compound]	> 2857	> 1000			> 100 µM		0.1 µM (≈ 0.13 µg/mL)	0.035 ± 0.002 µM	> 100 µM							
CCC(C(=O)OCc1ccccc1)C1CCC(C)C(C(C)C(O)C(C)C(=O)C(CC)C2OC3(C=CC(O)C4(CCC(C)(C5CCC(O)(CC)C(C)O5)O4)O3)C(C)CC2C)O1 (centres unmarked) [SAL-E5]		10	3.21 ± 0.02 µM	10 µM (≈ 8.41 µg/mL)	100 µM (≈ 84.1 µg/mL)	38.4 ± 4.2 µM										
CCCCNC(=O)C(CC)C1CCC(C)C(C(C)C(O)C(C)C(=O)C(CC)C2OC3(C=CC(O)C4(CCC(C)(C5CCC(O)(CC)C(C)O5)O4)O3)C(C)CC2C)O1 (centres unmarked) [SAL-AM2, salinomycin n-butyl amide]	greater than 250		0.04 ± 0.007 µM		100 µM (≈ 80.6 µg/mL)	14.5 ± 1.3 µM				cell swelling similar to parasites treated with salinomycin	0.1 to 1 µM	below 1 μM	0.1 µM (≈ 0.0806 µg/mL)			
CC[C@@H](C(=O)[C@@H](C)[C@@H](O)[C@H](C)[C@@H]1O[C@@H]([C@@H](CC)C(=O)O)CC[C@@H]1C)[C@H]1O[C@]2(C=C[C@@H](O)[C@]3(CC[C@@](C)([C@H]4CC[C@](O)(CC)[C@H](C)O4)O3)O2)[C@H](C)C[C@@H]1C [Salinomycin, salinomycin]	2.4	1	0.18 ± 0.06 µM	1 µM (≈ 0.751 µg/mL)	1 µM (≈ 0.751 µg/mL)	0.44 ± 0.21 µM				continued to swell until the end of experiment				11 µM	30 µM	< 100
CCC(C(=O)OC)C1CCC(C)C(C(C)C(O)C(C)C(=O)C(CC)C2OC3(C=CC(O)C4(CCC(C)(C5CCC(O)(CC)C(C)O5)O4)O3)C(C)CC2C)O1 (centres unmarked) [SAL-E1]	11.4	10	3.08 ± 0.18 µM	10 µM (≈ 7.65 µg/mL)	100 µM (≈ 76.5 µg/mL)	35.5 ± 2.4 µM										
CC[C@@]1([C@@H]2O[C@@H]([C@H]3O[C@@](O)(CO)[C@H](C)C[C@@H]3C)C[C@@H]2C)CC[C@H]([C@]2(C)CC[C@]3(C[C@H](O)[C@@H](C)[C@@H]([C@@H](C)[C@@H](OC)[C@H](C)C(=O)O)O3)O2)O1 [Monensin, monensin]	51	100			10 µM (≈ 6.71 µg/mL)		0.1 µM (≈ 0.0671 µg/mL)	0.029 ± 0.002 µM	1.48 ± 0.56 µM							
CCC1(C2OC(C3OC(O)(CO)C(C)CC3C)CC2C)CCC(C2(C)CCC3(CC(O)C(C)C(C(C)C(OC)C(C)C(=O)OCCOCCOC)O3)O2)O1 (centres unmarked) [MON-E3]	12.1	10	1.68 ± 0.56 µM	10 µM (≈ 7.73 µg/mL)	100 µM (≈ 77.3 µg/mL)	20.3 ± 3.1 µM										
CCC(C(=O)NCc1ccccc1)C1CCC(C)C(C(C)C(O)C(C)C(=O)C(CC)C2OC3(C=CC(O)C4(CCC(C)(C5CCC(O)(CC)C(C)O5)O4)O3)C(C)CC2C)O1 (centres unmarked) [SAL-AM3]	2.7	10	2.94 ± 0.2 µM	10 µM (≈ 8.4 µg/mL)	100 µM (≈ 84 µg/mL)	7.92 ± 1.95 µM										
CCC1(C2OC(C3OC(O)(CO)C(C)CC3C)CC2C)CCC(C2(C)CCC3(CC(O)C(C)C(C(C)C(OC)C(C)C(=O)OC)O3)O2)O1 (centres unmarked) [MON-E1]	11.1	10	3.06 ± 0.06 µM	10 µM (≈ 6.85 µg/mL)	100 µM (≈ 68.5 µg/mL)	34.1 ± 2.2 µM										
CCC(C(=O)NCCc1c[nH]c2ccccc12)C1CCC(C)C(C(C)C(O)C(C)C(=O)C(CC)C2OC3(C=CC(O)C4(CCC(C)(C5CCC(O)(CC)C(C)O5)O4)O3)C(C)CC2C)O1 (centres unmarked) [SAL-AM4]	9.1	10	2.69 ± 0.51 µM	10 µM (≈ 8.93 µg/mL)	100 µM (≈ 89.3 µg/mL)	24.5 ± 3.7 µM										
CCC(C(=O)OCCO)C1CCC(C)C(C(C)C(O)C(C)C(=O)C(CC)C2OC3(C=CC(O)C4(CCC(C)(C5CCC(O)(CC)C(C)O5)O4)O3)C(C)CC2C)O1 (centres unmarked) [SAL-E2]	10.6	10	3.25 ± 0.26 µM	10 µM (≈ 7.95 µg/mL)	100 µM (≈ 79.5 µg/mL)	34.6 ± 1.9 µM										
CCC1(C2OC(C3OC(O)(CO)C(C)CC3C)CC2C)CCC(C2(C)CCC3(CC(O)C(C)C(C(C)C(OC)C(C)C(=O)OCCO)O3)O2)O1 (centres unmarked) [MON-E2]	9.2	10	2.76 ± 0.1 µM	10 µM (≈ 7.15 µg/mL)	100 µM (≈ 71.5 µg/mL)	25.3 ± 5 µM										
